16 compounds from publication PMC9926234, “Iterative computational design and crystallographic screening identifies potent inhibitors targeting the Nsp3 macrodomain of SARS-CoV-2” (Proceedings of the National Academy of Sciences of the …, 2023) can be followed below.

Where two headings read alike, the source gives them in different places.

Assay [1] addresses SARS-CoV-2 NSP3 Mac1 (Severe acute respiratory syndrome coronavirus 2, UniProt P0DTD1). In kind it is binding. Conditions: for Refined occupancy: ligand occupancy after refinement (phenix.refine).
Assay [2] has as its system SARS-CoV-2 NSP3 Mac1. Briefly: Overall hit call (binding in crystallographic soaking or the HTRF-based binding assay). The text has this:
Supplement pnas.2212931120.sd01.xlsx, sheet "Compound Summary" | column: HIT*

The mark [3] stands for this setting: PanDDA event map background density correction, crystal soak, compound concentration 100 mM.
The mark [4] stands for this setting: PanDDA event map, 1 minus background density correction, crystal soaking of Mac1.
Where [5] appears, read: ligand modeled in the crystal structure, crystal soak, compound concentration 100 mM.
The mark [6] stands for this setting: PanDDA event map 1-BDC, crystal soak, Compound_concentration 100 mM, PanDDA run dmso_34 or nohits_35 per dataset.
Where [7] appears, read: crystal soak, Compound_concentration 100 mM, Echo dispense 40 nl, PanDDA run dmso_34 or nohits_35 per dataset.
The mark [8] stands for this setting: ligand modeled in this dataset, crystal soak, Compound_concentration 100 mM.
[9] abbreviates: PanDDA 1-BDC of the event, compound stock 100 mM, Echo dispense volume 80 nl.
The mark [10] stands for this setting: crystal soak, compound stock 100 mM, Echo dispense volume 80 nl.

Regarding `Cn1ncc2c(=O)[nH]c(CCC(=O)N3CC=C(C(=O)O)C3)nc21` [Z6689], the 1-BDC at SARS-CoV-2 NSP3 Mac1 [1] (setting [3]) is recorded as 0.17. At SARS-CoV-2 NSP3 Mac1 [1] (setting [4]), the “1-BDC (PanDDA)” value is 0.17. Also, on SARS-CoV-2 NSP3 Mac1 [1] (setting [5]), the “Modeled?” value was “TRUE”. In addition, the Refined occupancy on SARS-CoV-2 NSP3 Mac1 [1] (crystal soaking of Mac1) came to 34. The “HIT*” value with SARS-CoV-2 NSP3 Mac1 [2] is “Y”.

As for `COc1cncc(C(=O)NCCNC(=O)c2ncccc2O)c1` [Z6634], the “HIT*” value in the assay with SARS-CoV-2 NSP3 Mac1 [2] is “Y”.

Take `c1ccc(CNc2ncnc3[nH]ccc23)nc1` [SRH-0028]: the 1-BDC at SARS-CoV-2 NSP3 Mac1 [1] (setting [6]) was 0.09. Also, the “1-BDC (PanDDA)” value on SARS-CoV-2 NSP3 Mac1 [1] (setting [4]) was determined as 0.09. Also, the “PanDDA hit?” value at SARS-CoV-2 NSP3 Mac1 [1] (setting [7]) is “TRUE”. Also, on SARS-CoV-2 NSP3 Mac1 [1] (setting [8]), the “Modeled?” value is listed as “TRUE”. Also, on SARS-CoV-2 NSP3 Mac1 [1] (crystal soaking of Mac1), the Refined occupancy came out at 18. In the assay on SARS-CoV-2 NSP3 Mac1 [2], the “HIT*” value is on record as “Y”.

Consider `O=C(O)c1ccc(F)c(CNC(=O)c2ccc3[nH]ccc3c2)c1` [Z7647], for which the “HIT*” value in the assay with SARS-CoV-2 NSP3 Mac1 [2] is recorded as “Y”.

`O=C(O)CC1CC(CNC(=O)c2cncc3sccc23)C1` (stereo not drawn) [Z1558]: the “HIT*” value in the assay with SARS-CoV-2 NSP3 Mac1 [2] is “Y”.

Regarding `O=C(NS(=O)(=O)Cc1ccc(Br)c(F)c1)c1cnn2ccccc12` [Z3209], the “HIT*” value with SARS-CoV-2 NSP3 Mac1 [2] is “Y”.

For `O=C(O)[C@@H]1CCC[C@H](Nc2ncnc3[nH]c4cc(F)ccc4c23)C1` [LRH-0022], the 1-BDC was determined as 0.28 on SARS-CoV-2 NSP3 Mac1 [1] (PanDDA 1-BDC of the event, compound stock 100 mM, Echo dispense volume 40 nl) and 0.32 at SARS-CoV-2 NSP3 Mac1 [1] (setting [9]). On SARS-CoV-2 NSP3 Mac1 [1] (setting [4]), the “1-BDC (PanDDA)” value is recorded as 0.32. The “PanDDA hit?” value on SARS-CoV-2 NSP3 Mac1 [1] (crystal soak, compound stock 100 mM, Echo dispense volume 40 nl) is “TRUE”; at SARS-CoV-2 NSP3 Mac1 [1] (setting [10]), “TRUE”. In addition, the “Modeled?” value on SARS-CoV-2 NSP3 Mac1 [1] (ligand modeled in structure, compound stock 100 mM, Echo dispense volume 80 nl) is reported as “TRUE”. On SARS-CoV-2 NSP3 Mac1 [1] (crystal soaking of Mac1), this compound had a Refined occupancy of 64. The “Comment (ligand modelled in the crystal structure)” value on SARS-CoV-2 NSP3 Mac1 [1] (what was observed in density instead of the vendor structure) was “pyrimido-indole core only”. Further, the “HIT*” value in the assay on SARS-CoV-2 NSP3 Mac1 [2] was “Y”.

Consider `CNc1cnc(C(=O)N2CC(c3noc(O)n3)C2)cn1.O=C(O)C(F)(F)F` [Z6567], for which, at SARS-CoV-2 NSP3 Mac1 [1] (setting [3]), the 1-BDC was 0.31. For the same compound, the “1-BDC (PanDDA)” value at SARS-CoV-2 NSP3 Mac1 [1] (setting [4]) came out at 0.31. For the same compound, the “Modeled?” value on SARS-CoV-2 NSP3 Mac1 [1] (setting [5]) is listed as “TRUE”. The Refined occupancy on SARS-CoV-2 NSP3 Mac1 [1] (crystal soaking of Mac1) was 62. For the same compound, the “HIT*” value with SARS-CoV-2 NSP3 Mac1 [2] is reported as “Y”.

In the case of `O[C@@H]1CC[C@H](Nc2ncnc3[nH]c4cc(F)ccc4c23)C1` [LRH-0018], the 1-BDC on SARS-CoV-2 NSP3 Mac1 [1] (setting [9]) and on SARS-CoV-2 NSP3 Mac1 [1] (setting [6]) was 0.07 each time. Further, the “1-BDC (PanDDA)” value on SARS-CoV-2 NSP3 Mac1 [1] (setting [4]) amounted to 0.07. Also, the “PanDDA hit?” value on SARS-CoV-2 NSP3 Mac1 [1] (setting [7]) and at SARS-CoV-2 NSP3 Mac1 [1] (setting [10]) was “TRUE” each time. At SARS-CoV-2 NSP3 Mac1 [1] (setting [8]), the “Modeled?” value was “TRUE”. The compound further returned a Refined occupancy at SARS-CoV-2 NSP3 Mac1 [1] (crystal soaking of Mac1) of 14. The “HIT*” value in the assay on SARS-CoV-2 NSP3 Mac1 [2] is “Y”.

In the case of `Cc1oc(CNc2ncnc3[nH]c4ccccc4c23)cc1C(=O)O` [Z3124], the “HIT*” value with SARS-CoV-2 NSP3 Mac1 [2] is “Y”.

Take `O=S1(=O)CCC1CNc1ncnc2[nH]c3cc(F)ccc3c12` (stereo not drawn) [LRH-0012]: the 1-BDC on SARS-CoV-2 NSP3 Mac1 [1] (setting [9]) was found to be 0.06; on SARS-CoV-2 NSP3 Mac1 [1] (setting [6]) it was 0.07. Moreover, on SARS-CoV-2 NSP3 Mac1 [1] (setting [4]), the “1-BDC (PanDDA)” value came to 0.07. Further, the “PanDDA hit?” value on SARS-CoV-2 NSP3 Mac1 [1] (setting [7]) and on SARS-CoV-2 NSP3 Mac1 [1] (setting [10]) was “TRUE” throughout. Further, the “Modeled?” value at SARS-CoV-2 NSP3 Mac1 [1] (setting [8]) was “TRUE”. This compound came in with a Refined occupancy at SARS-CoV-2 NSP3 Mac1 [1] (crystal soaking of Mac1) of 14. Moreover, the “HIT*” value with SARS-CoV-2 NSP3 Mac1 [2] is “Y”.

For `CCNc1ncc(C(=O)NCCn2cnc(C(=O)O)c2)s1` [Z6684], at SARS-CoV-2 NSP3 Mac1 [1] (setting [4]), the “1-BDC (PanDDA)” value was found to be 0.1. This compound also had a 1-BDC on SARS-CoV-2 NSP3 Mac1 [1] (PanDDA event map, crystal soak, Compound_concentration 100 mM, Echo_dispense_volume 40 nl) of 0.1. The “PanDDA hit?” value on SARS-CoV-2 NSP3 Mac1 [1] (crystal soak, Compound_concentration 100 mM, Echo_dispense_volume 40 nl, PanDDA run (background map) dmso_34, nohits_35 or nohits_62) is listed as “TRUE”. The “Modeled?” value on SARS-CoV-2 NSP3 Mac1 [1] (ligand modeled, crystal soak, Compound_concentration 100 mM, Echo_dispense_volume 40 nl) is “TRUE”. At SARS-CoV-2 NSP3 Mac1 [1] (crystal soaking of Mac1), this compound gave a Refined occupancy of 20. In addition, the “HIT*” value in the assay on SARS-CoV-2 NSP3 Mac1 [2] is “Y”.

For the compound `CC(F)(F)c1cncc(C(=O)NC(Cc2cncc(Br)c2)C(=O)O)c1` (stereo not drawn) [Z3140], the “HIT*” value with SARS-CoV-2 NSP3 Mac1 [2] is recorded as “Y”.

In the case of `O=C(O)Cc1cccc(CNC(=O)c2ncnc3ccsc23)c1` [Z5712], the “HIT*” value with SARS-CoV-2 NSP3 Mac1 [2] is “Y”.

With `Cn1ccn2c(CCNC(=O)[C@H]3C[C@H]3C(=O)O)nnc2c1=O` [Z6744], the 1-BDC at SARS-CoV-2 NSP3 Mac1 [1] (setting [3]) is reported as 0.3. For the same compound, on SARS-CoV-2 NSP3 Mac1 [1] (setting [4]), the “1-BDC (PanDDA)” value was determined as 0.3. For the same compound, on SARS-CoV-2 NSP3 Mac1 [1] (setting [5]), the “Modeled?” value is on record as “TRUE”. The Refined occupancy on SARS-CoV-2 NSP3 Mac1 [1] (crystal soaking of Mac1) was 60. In addition, the “HIT*” value with SARS-CoV-2 NSP3 Mac1 [2] is recorded as “Y”.

In the case of `O[C@@H]1CC[C@H](Nc2ncnc3[nH]ccc23)C1` [SRH-0018], at SARS-CoV-2 NSP3 Mac1 [1] (setting [4]), the 1-BDC was found to be 0.07. For the same compound, the “Modeled?” value on SARS-CoV-2 NSP3 Mac1 [1] (ligand modeled from this dataset, compound concentration 100 mM) is recorded as “TRUE”. The compound further registered a Refined occupancy at SARS-CoV-2 NSP3 Mac1 [1] (crystal soaking of Mac1) of 14. The “HIT*” value with SARS-CoV-2 NSP3 Mac1 [2] was “Y”.
